Where two headings read alike, the source gives them in different places.
Legend:
[1] = system: LTB4 production from rat peritoneal cells (Rat PEC); test: Inhibitory Activity on LTB4 Production from Rat Peritoneal Cells; type: cell-based, rat (Jcl-SD); conditions: 0.25 h, Ca-ionophore A23187 1 μM, 15 min, RIA
Experimental: Inhibitory Activity on LTB4 Production from Rat Peritoneal Cells
To each male Jcl-SD rat (300-350 g weight) was intraperitoneally administered 10 ml of Hanks' solution containing 0.1% bovine serum albumin (hereinafter referred to as BSA) and 25 U/ml of heparin. Then the ascites were collected and centrifuged (1500 rpm×5 min., at 4° C.). The resulting cell fraction (precipitation) was suspended and adjusted at […] with Hanks' solution containing 0.1% BSA. The thus obtained suspension (800 μl, 8×10^5 cells) was dispensed into polypropylene tubes and incubated at 37° C. 10 min, and successively for 10 min. after addition of serial dilutions (100 μl each) of a test sample. Next, 100 μl of Ca-ionophore A23187 (final concentration: 1 μM) was added to the resulting suspension and allowed to stand for 15 min, then the mixture was ice-cooled to terminate the reaction. The reaction mixtures were centrifuged (3000 rpm×5 min., at 4° C.) to give supernatants, which were collected and stored at -80° C. until LTB4 assay. After thawed, the LTB4 assay was performed by RIA using ^3 H--LTB4.

[2] = system: Carrageenin-Induced Paw Edema of Rat; test: Inhibitory Activity on Carrageenin-Induced Paw-Edema of Rat; type: in vivo, rat (LEW/Crj); conditions: oral 1 hour before carrageenin, inhibitory rate 3 or 4 hours after carrageenin, read-out: ED30 Inhibitory Activities to Carrageenin-Induced Paw Edema of Rat
Experimental: Inhibitory Activity on Carrageenin-Induced Paw-Edema of Rat
Namely, male LEW/Crj rats (6-week-old, 140-170 g weight) fasted for 24 hours were used (7 to 8 rats per group).
A solution (0.1 ml) containing 1% λ-carrageenin (PICININ-A, Zushikagaku) was injected into the subplantar tissue of the right hind paw of each rat orally administered a test compound before 1 hour, to induce edema. The paw volume was calculated plethysmographically before and after the injection at an interval of 1 hour until 5 hours later. The inhibitory rate of the drug-administered group was calculated, with the vehicle group as the reference, to determine the efficacy of the test compounds by Dunnett-t assay. The anti-edema activity was indicated as ED30 calculated, by regression analysis method, based on the inhibitory rate shown 3 or 4 hours later after the administration of carrageenin.

[3] = system: PGE2 production from rat synovia cells (Rat SVC); test: Inhibitory Activity on PGE2 Production from Rat Synovia Cells; type: cell-based, rat (LEW/Crj); conditions: human IL-1 β 30 U/ml, 15 hours, RIA
Experimental: Inhibitory Activity on PGE2 Production from Rat Synovia Cells
LEW/Crj rats (male, 300-350 g weight) were subjected to synovectomy. The isolated synovia cells were subcultivated under a certain condition up to a well amount of cells for the experiment. The cells were dispensed to each well of a 96-well microtiter plate at a concentration of 4×10^3 /160 μl/well and then cultivated for 72 hours in a CO2 incubator. Serial dilutions (20 μl each) of a test compound and human IL-1 β(final concentration: 30 U/ml) were added to the wells and incubated for 15 hours in a Co2 incubator. After the incubation, the supernatant was collected from each well and stored at -80° C. until PGE2 assay. […]

[4] = system: IL-1 production in THP-1 cells; test: Inhibitory Activity on IL-1 Production caused by The Stimulation of LPS in THP-1 Cells; type: cell-based; conditions: Homo sapiens, read-out: IC50 THP-1 IL-1
Experimental: Serial dilutions (100 μl each) of a test compound and LPS (final concentration: 10 μg/ml) were further added to each well and the plate was kept at 37° C. for 24 hours. Then, the supernatant was collected from each well and centrifuged (3000 rpm×10 min.). […]

[5] = system: Tunica Mucosa Ventriculi of rat (stomach); test: Inducing Activities on Injury at Tunica Mucosa of Rat (stomach); type: in vivo, rat (LEW/Crj); conditions: oral, 6 hours
Experimental: Inducing Activities on Injury at Tunica Mucosa of Rat
Sixs LEW/Crj male rats (six week old, 140-160 g weight) were used per one group. A drug was orally administered to each rat fasted for 24 hours, then six hours later each rat were bled to death under anesthesia of ether. From each rat was taken out the stomach, in which about 6 ml of physiological saline was filled, then the stomach was steeped in 1% formalin solution for 15 min. The stomach was incised along with curvatura ventriculi major and observed with an actual-microscope to see the injured condition thereof, then the number of rats injuried at stomach and the length of hemorrhage macula were determined. The degree of the injury was shown as Lesion index (mm) which was the cumulative value of the length of hemorrhage macula in each administered group.

[6] = THP-1 cells, LPS 10 μg/ml, 24 hours, RIA of IL-1 β

## CC(C)(C)c1cc(C=C2CCN(C(N)=O)C2=O)cc(C(C)(C)C)c1O [Ia-1, N-carbamoyl-3-(3,5-di-tert-butyl-4-hydroxybenzylidene)pyrrolidin-2-one]
[1]
  IC50: 4 µM
[2]
  ED30: 18 mg/kg
[3]
  IC50: 0.4 µM
[4]; [6]
  IC50: 20 µM
[5]; 10 mg/kg
  Injury at Tunica Mucosa Ventriculi, Degree of Injury (Lesion index): 0 ± 0 mm
  Injury at Tunica Mucosa Ventriculi, Number Occurrence/Sample: 0/6
[5]; 100 mg/kg
  Injury at Tunica Mucosa Ventriculi, Degree of Injury (Lesion index): 0 ± 0 mm
  Injury at Tunica Mucosa Ventriculi, Number Occurrence/Sample: 0/6
[5]; 200 mg/kg
  Injury at Tunica Mucosa Ventriculi, Degree of Injury (Lesion index): 0 ± 0 mm
  Injury at Tunica Mucosa Ventriculi, Number Occurrence/Sample: 0/6

## CC(C)(C)c1cc(C=C2CCN(C(=O)NO)C2=O)cc(C(C)(C)C)c1O [Ia-4, N-(N-hydroxycarbamoyl)-3-(3,5-di-tert-butyl-4-hydroxybenzylidene)pyrrolidin-2-one]
[1]
  IC50: 3 µM
[2]
  ED30: 16 mg/kg
[3]
  IC50: 0.2 µM
[4]; [6]
  IC50: 25 µM
[5]; 100 mg/kg
  Injury at Tunica Mucosa Ventriculi, Degree of Injury (Lesion index): 0 ± 0 mm
  Injury at Tunica Mucosa Ventriculi, Number Occurrence/Sample: 0/8
[5]; 200 mg/kg
  Injury at Tunica Mucosa Ventriculi, Degree of Injury (Lesion index): 0 ± 0 mm
  Injury at Tunica Mucosa Ventriculi, Number Occurrence/Sample: 0/8
[5]; 400 mg/kg
  Injury at Tunica Mucosa Ventriculi, Degree of Injury (Lesion index): 0.2 ± 0.1 mm
  Injury at Tunica Mucosa Ventriculi, Number Occurrence/Sample: 3/8

## CN(O)C(=O)N1CCC(=Cc2cc(C(C)(C)C)c(O)c(C(C)(C)C)c2)C1=O [Ia-6, N-(N-hydroxy-N-methylcarbamoyl)-3-(3,5-di-tert-butyl-4-hydroxybenzylidene)pyrrolidin-2-one]
[1]
  IC50: 3 µM
[2]
  ED30: 9 mg/kg
[3]
  IC50: 0.009 µM
[4]; [6]
  IC50: 34 µM
[5]; 10 mg/kg
  Injury at Tunica Mucosa Ventriculi, Degree of Injury (Lesion index): 0 ± 0 mm
  Injury at Tunica Mucosa Ventriculi, Number Occurrence/Sample: 0/6
[5]; 30 mg/kg
  Injury at Tunica Mucosa Ventriculi, Degree of Injury (Lesion index): 0.6 ± 0.5 mm
  Injury at Tunica Mucosa Ventriculi, Number Occurrence/Sample: 3/6
[5]; 100 mg/kg
  Injury at Tunica Mucosa Ventriculi, Degree of Injury (Lesion index): 1.0 ± 0.5 mm
  Injury at Tunica Mucosa Ventriculi, Number Occurrence/Sample: 3/6

## CON1CCC(=Cc2cc(C(C)(C)C)c(O)c(C(C)(C)C)c2)C1=O [Reference Compound, N-methoxy-3-(3,5-di-tert-butyl-4-hydroxybenzylidene)-2-pyrrolidone, reference compound]
[1]
  IC50: 6 µM
[2]
  ED30: 3 mg/kg
[3]
  IC50: 0.005 µM
[4]; THP-1, 24 h
  IC50: > 100 µM
[5]; 3 mg/kg
  Injury at Tunica Mucosa Ventriculi, Degree of Injury (Lesion index): 4.5 ± 1.3 mm
  Injury at Tunica Mucosa Ventriculi, Number Occurrence/Sample: 6/6
[5]; 10 mg/kg
  Injury at Tunica Mucosa Ventriculi, Degree of Injury (Lesion index): 7.2 ± 1.2 mm
  Injury at Tunica Mucosa Ventriculi, Number Occurrence/Sample: 6/6
[5]; 30 mg/kg
  Injury at Tunica Mucosa Ventriculi, Degree of Injury (Lesion index): 11.2 ± 2.2 mm
  Injury at Tunica Mucosa Ventriculi, Number Occurrence/Sample: 6/6
